# Reference: US20250099448A1, “HETEROCYCLIC COMPOUNDS” (Hoffmann-La Roche Inc., priority 2022, published 2025)
# pIC50: −log10 of the molar value.
# Target: T1, MAGL protein (Homo sapiens, UniProt Q99685)
# T1 sequence (Q99685 1-303): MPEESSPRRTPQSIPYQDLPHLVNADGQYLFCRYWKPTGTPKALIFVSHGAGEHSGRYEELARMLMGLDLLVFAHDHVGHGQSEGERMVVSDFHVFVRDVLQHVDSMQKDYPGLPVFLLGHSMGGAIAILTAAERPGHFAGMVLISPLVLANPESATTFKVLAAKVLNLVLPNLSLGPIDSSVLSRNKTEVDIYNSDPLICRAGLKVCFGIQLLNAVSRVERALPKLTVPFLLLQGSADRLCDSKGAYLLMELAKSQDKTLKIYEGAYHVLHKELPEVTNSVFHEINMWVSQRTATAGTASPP
# Experiment: 2-AG assay: MAGL inhibitory activity by hydrolysis of 2-arachidonoylglycerol to arachidonic acid, followed by mass spectrometry
# Type: biochemical
# Settings: 8 μM 2-arachidonoylglycerol, 15 min preincubation, 30 min reaction at RT, RapidFire MS readout
# Outline: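 Activity was measured by RapidFire SPE–triple-quad MS as the ratio of arachidonic acid to d8-arachidonic acid after 2-AG hydrolysis (8 μM substrate, 30 min, RT, acetonitrile quench). Compounds, tested from 12.5 μM down to […], were first preincubated 15 min with MAGL in TRIS/EDTA/Tween-20 buffer containing 2.5% DMSO.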
row,Structure (SMILES),pIC50
1,O=C(N1CC(NCc2ccc(F)cc2C(F)(F)F)C1)N1CC2(CC(c3nnc(C4CC4)[nH]3)C2)C1 [compound 196],6.95
2,O=C(N1CC2(CC(Cc3ccc(C(F)(F)F)nc3)C2)C1)N1CC2(CC(c3nnc(C4CCC4)[nH]3)C2)C1 [compound 7],8.44
3,O=C(N1CC2(CC(Cc3cnc(C(F)(F)F)nc3)C2)C1)N1CC2(CC(c3nc(C4(F)CC4)n[nH]3)C2)C1 [compound 565],8.98
4,O=C(N1CC2(CC(c3nnc(C4CC4)[nH]3)C2)C1)N1CC2(C1)CN(S(=O)(=O)NCc1ccc(F)cc1)C2 [compound 214],7.70
5,O=C(N1CC2(CC(Cc3nc(C(F)(F)F)ns3)C2)C1)N1CC2(CC(c3nnc(C4(O)CC4)[nH]3)C2)C1 [compound 60],8.39
6,O=C(N1CC2(CCC(Cc3cnc(C(F)(F)F)cn3)CC2)C1)N1CC2(CC(c3nnc(C4CC4)[nH]3)C2)C1 [compound 136],9.24
7,O=C(N1CC2(CC(c3cnc(C(F)(F)F)nc3)C2)C1)N1CC2(CC(c3nnc(C4CC4)[nH]3)C2)C1 [compound 630],8.87
8,O=C(N1CC2(CC(c3nnc(C4CC4)[nH]3)C2)C1)N1CC2(C1)CN(S(=O)(=O)c1cccc(OC(F)(F)F)c1)C2 [compound 87],8.09
9,O=C(N1CC(c2ccc(Oc3ccccc3Cl)nc2)C1)N1CC2(CC(c3nnc(C4CC4)[nH]3)C2)C1 [compound 367],9.82
10,O=C(N1CC2(CC(Cc3cnc(C(F)(F)F)cn3)C2)C1)N1CC2(CC(c3nc(C4(F)CC4)n[nH]3)C2)C1 [compound 424],9.34
11,O=C(N1CC2(CC(NC(=O)C3(C(F)(F)F)CC3)C2)C1)N1CC2(CC(c3nnc(C4CC4)[nH]3)C2)C1 [compound 222],7.39
12,N#Cc1ncc(CC2CC3(C2)CN(C(=O)N2CC4(CC(c5nc(C6(F)CC6)n[nH]5)C4)C2)C3)cc1C(F)(F)F [compound 512],9.17
13,O=C(N1CC2(CC(Cc3ccc(S(=O)(=O)C(F)(F)F)cn3)C2)C1)N1CC2(CC(c3nc(C4(F)CC4)n[nH]3)C2)C1 [compound 652],9.72
14,O=C(N1CC(Cc2ccc(Cl)cc2)C1)N1CC2(CC(c3nnc(C4(O)CC4)[nH]3)C2)C1 [compound 361],7.34
15,O=C(N1CC2(CC(c3nnc(C4CC4)[nH]3)C2)C1)N1CC2(CCN(Cc3cnc(C(F)(F)F)cn3)C2)C1 [compound 184],7.93
16,O=C(N1CC2(CC(Cc3ccc(F)cn3)C2)C1)N1CC2(CC(c3nnc(C4(O)CC4)[nH]3)C2)C1 [compound 44],8.65
17,O=C(N1CC2(CC(c3nc(C4(O)CC4)n[nH]3)C2)C1)N1CC2(CCN(Cc3ccc(S(=O)(=O)C(F)(F)F)cc3)C2)C1 [compound 714],7.52
18,N#Cc1ncc(CC2CC3(C2)CN(C(=O)N2CC4(CC(c5nnc(C6CC6)[nH]5)C4)C2)C3)cc1C(F)(F)F [compound 535],9.19
19,O=C(N1CC2(CC(Cn3cc(C(F)(F)F)ccc3=O)C2)C1)N1CC2(CC(c3nc(C4(O)CC4)n[nH]3)C2)C1 [compound 417],8.21

# Further lines, results first:
row,pIC50,Structure (SMILES)
1,8.15,O=C(N1CC2(CC(c3nc(C4CC4)n[nH]3)C2)C1)N1CC2(CCN(Cc3ccc(C(F)(F)F)nc3)C2)C1 [compound 804]
2,7.22,O=C(N1CC2(CCC(Cc3ccc(C(F)(F)F)cn3)CC2)C1)N1CC2(CC(c3nc(C4COC4)n[nH]3)C2)C1 [compound 814]
3,7.09,Cn1cc(OC2CC3(C2)CN(C(=O)N2CC4(CC(c5nc(C6CC6)n[nH]5)C4)C2)C3)cn1 [compound 542]
4,9.92,O=C(N1CC(C23CC(CNC4(C(F)(F)F)CC4)(C2)C3)C1)N1CC2(CC(c3nnc(C4CC4)[nH]3)C2)C1 [compound 341]
5,8.06,O=C(N1CC2(CC(c3nc(C4CC4)n[nH]3)C2)C1)N1CC2(CN(Cc3cc(C(F)(F)F)sn3)C2)C1 [compound 675]
6,9.11,Cc1cc(C2CC2)n(CC2CC3(C2)CN(C(=O)N2CC4(CC(c5nc(C6CC6)n[nH]5)C4)C2)C3)n1 [compound 846]
7,6.84,O=C(N1CC2(CC(c3nc(C4CC(F)(F)C4)n[nH]3)C2)C1)N1CC2(CN(Cc3cc(C(F)(F)F)no3)C2)C1 [compound 758]
8,7.44,N=S(=O)(c1ccc(CC2CC3(C2)CN(C(=O)N2CC4(CC(c5nc(C6COC6)n[nH]5)C4)C2)C3)cc1)C(F)(F)F (stereo not shown) [compound 830]
9,6.35,O=C(N1CC2(CC(c3nc(C4CC(F)(F)C4)n[nH]3)C2)C1)N1CC2(CN(Cc3cnc(C(F)(F)F)cn3)C2)C1 [compound 750]
10,7.60,O=C(N1CC2(CC(c3nc(C4CC4)n[nH]3)C2)C1)N1CC2(CN(Cc3cc(C4CC4)n[nH]3)C2)C1 [compound 900]
11,7.45,CCc1nsc(CN2CC3(C2)CN(C(=O)N2CC4(CC(c5nc(C6CC6)n[nH]5)C4)C2)C3)n1 [compound 762]
12,8.61,O=C(N1CC(C23CC(Oc4cnc(C(F)(F)F)cn4)(C2)C3)C1)N1CC2(CC(c3nc(C4CC4)n[nH]3)C2)C1 [compound 707]
13,8.92,"NC(=O)C1(c2ccc(C3CN(C(=O)N4CC5(CC(c6nnc(C7CC7)[nH]6)C5)C4)C3)cc2)CC1 [Example 393, 1-[4-[1-[6-(5-cyclopropyl-4H-1,2,4-triazol-3-yl)-2-azaspiro[3.3]heptane-2-carbonyl]azetidin-3-yl]phenyl]cyclopropanecarboaamide]"
14,7.33,Cc1cc(C)n(C23CC(C4CN(C(=O)N5CC6(CC(c7nc(C8CC8)n[nH]7)C6)C5)C4)(C2)C3)n1 [compound 725]
15,9.96,Cn1nc(CC2CC3(C2)CN(C(=O)N2CC4(CC(c5nc(C6(F)CC6)n[nH]5)C4)C2)C3)cc1C(F)(F)F [compound 602]
16,9.04,O=C(N1CC2(CC(Cc3ncc(Cl)cc3F)C2)C1)N1CC2(CC(c3nc(C4CC4)n[nH]3)C2)C1 [compound 613]
17,9.34,"CCOc1cc(C)n(-c2ccc(C3CN(C(=O)N4CC5(CC(c6nnc(C7CC7)[nH]6)C5)C4)C3)cc2)n1 [Example 559, [6-(5-cyclopropyl-4H-1,2,4-triazol-3-yl)-2-azaspiro[3.3]heptan-2-yl]-[3-[4-(3-ethoxy-5-methyl-pyrazol-1-yl)phenyl]azetidin-1-yl]methanone]"
18,6.62,Cn1cnc(C#N)c1CN1CC2(C1)CN(C(=O)N1CC3(CC(c4nc(C5CC5)n[nH]4)C3)C1)C2 [compound 537]
19,7.69,CC1(O)CN(c2ccc(C3CN(C(=O)N4CC5(CC(c6nnc(C7CC7)[nH]6)C5)C4)C3)cn2)C1 [compound 82]
20,6.58,O=C(N1CC(OCc2ccc(S(=O)(=O)C(F)(F)F)cc2F)C1)N1CC2(CC(c3nc(C4CC(F)(F)C4)n[nH]3)C2)C1 [compound 502]
21,6.57,CS(=O)(=O)c1cccc(COC2CN(C(=O)N3CC4(CC(c5nnc(C6CC6)[nH]5)C4)C3)C2)c1 [compound 334]
22,6.82,"Cn1c(CN2CC3(C2)CN(C(=O)N2CC4(CC(c5nc(C6CC6)n[nH]5)C4)C2)C3)nnc1C(F)(F)F [Example 958, [6-(3-cyclopropyl-1H-1,2,4-triazol-5-yl)-2-azaspiro[3.3]heptan-2-yl]-[6-[[4-methyl-5-(trifluoromethyl)-1,2,4-triazol-3-yl]methyl]-2,6-diazaspiro[3.3]heptan-2-yl]methanone]"
23,7.92,O=C(N1CC2(CC(c3nc(C4CC4)n[nH]3)C2)C1)N1CC2(CN(Cc3nc(C(F)(F)F)no3)C2)C1 [compound 662]
24,8.53,O=C(N1CC(Oc2ccc(C3CC3)cc2)C1)N1CC2(CC(c3nnc(C4(O)CC4)[nH]3)C2)C1 [compound 312]
